US11214594B2, “Antimicrobial peptide having synergistic antibacterial effect with antibiotics on multidrug resistant bacteria, and use thereof” (priority 2016, dated 2022)
Converted amounts (≈) assume the structure as drawn. Where two headings read alike, the source gives them in different places. Where a SMILES comes first, the peptide text is derived from it.

Assays:
MRSA 3126 = type: cell-based, Staphylococcus aureus; conditions: 3126
How it was run: (§1)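 Peptides were serially diluted twofold in Mueller-Hinton medium and combined 1:1 with bacterial suspensions prepared at 2×10^6 CFU. Readout was the minimal inhibitory concentration, i.e. the lowest concentration with no growth.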

MRSA 3114 = type: cell-based, Staphylococcus aureus; conditions: 3114
How it was run: as §1

MDRAB 12035 [1] = experiment: microbe, parasite or virus in culture; type: cell-based, Acinetobacter baumannii
How it was run: as §1

A. baumannii [2] = experiment: microbe, parasite or virus in culture; type: cell-based, Acinetobacter baumannii
How it was run: as §1

S. epidermidis = experiment: microbe, parasite or virus in culture; type: cell-based, Staphylococcus epidermidis
How it was run: as §1

MDRPA 2003 = type: cell-based, Pseudomonas aeruginosa
How it was run: as §1

MDRPA 2002 = type: cell-based, Pseudomonas aeruginosa
How it was run: as §1

MDRST 8007 = experiment: Minimal inhibitory concentration (MIC), single agent; type: cell-based, Salmonella typhimurium; conditions: agent alone
How it was run: as §1

P. aeruginosa = experiment: microbe, parasite or virus in culture; type: cell-based, Pseudomonas aeruginosa
How it was run: as §1

S. typhimurium = experiment: microbe, parasite or virus in culture; type: cell-based, Salmonella typhimurium
How it was run: as §1

MDRAB 12035 [3] = experiment: MIC of antibiotic during combined treatment with antimicrobial peptide; type: cell-based, Acinetobacter baumannii
How it was run: (§2)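 Strains in MH medium at 2×10^6 CFU/ml were mixed with peptide diluted stepwise (2:1) from its MIC, then antibiotic dilutions in MH medium were added to give the antibiotic MIC. The reversed set-up, peptide titrated against fixed antibiotic, gave the peptide MIC.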

MDRAB 12035 [4] = experiment: MIC of antimicrobial peptide during combined treatment with antibiotic; type: cell-based, Acinetobacter baumannii
How it was run: as §2

A. baumannii [5] = experiment: as above; type: cell-based, Acinetobacter baumannii
How it was run: as §2

MDREC 1229 [6] = experiment: MIC of antibiotic during combined treatment with antimicrobial peptide; type: cell-based, Escherichia coli
How it was run: as §2

B. subtilis = experiment: microbe, parasite or virus in culture; type: cell-based, Bacillus subtilis
How it was run: as §1

S. aureus = experiment: microbe, parasite or virus in culture; type: cell-based, Staphylococcus aureus
How it was run: as §1

MDREC 1238 = type: cell-based, Escherichia coli
How it was run: as §1

MDRAB 12036 = type: cell-based, Acinetobacter baumannii
How it was run: as §1

MDREC 1229 [7] = type: cell-based, Escherichia coli
How it was run: as §2

E. coli = type: cell-based, Escherichia coli; conditions: E. coli
How it was run: as §2

[8] = peptide treatment concentration 1 μg/ml
[9] = peptide treatment concentration 2 μg/ml
[10] = peptide treatment concentration 4 μg/ml
[11] = peptide treatment concentration 6 μg/ml
[12] = peptide treatment concentration 8 μg/ml
[13] = peptide treatment concentration 16 μg/ml
[14] = peptide treatment concentration 32 μg/ml
[15] = peptide treatment concentration 64 μg/ml
[16] = erythromycin 4 μg/ml (Conc./MIC 1/8)
[17] = erythromycin 8 μg/ml (Conc./MIC 1/4)
[18] = erythromycin 16 μg/ml (Conc./MIC 1/2)
[19] = erythromycin 32 μg/ml (Conc./MIC 1)
[20] = vancomycin 512 μg/ml (Conc./MIC 1/2)
[21] = vancomycin 1024 μg/ml (Conc./MIC 1)
[22] = with Erythromycin […] (Conc./MIC 1)

CC[C@H](C)[C@H](NC(=O)[C@H](CCCCN)NC(=O)[C@H](Cc1c[nH]c2ccccc12)NC(=O)[C@@H](N)CCCNC(=N)N)C(=O)N[C@@H](Cc1ccccc1)C(=O)N[C@@H](CCCCN)C(=O)N[C@@H](CCCCN)C(=O)N[C@H](C(=O)N1CCC[C@H]1C(=O)N[C@@H](CCCCN)C(=O)N[C@@H](Cc1ccccc1)C(=O)N[C@@H](CC(C)C)C(=O)N[C@@H](Cc1c[nH]cn1)C(=O)N[C@@H](CO)C(=O)N[C@@H](Cc1c[nH]c2ccccc12)C(=O)N[C@@H](CCCCN)C(=O)N[C@@H](CCCCN)C(=O)N[C@@H](Cc1c[nH]c2ccccc12)C(N)=O)[C@@H](C)CC [PapMA-4, RWK IFK KIP KFL HSW KKW-NH2] (H-RWKIFKKIPKFLHSWKKW-NH2; N-terminus assumed)
Minimal inhibitory concentration MIC (MRSA 3126): >128 µg/mL | Minimal inhibitory concentration MIC (MRSA 3114): >128 µg/mL | Minimal inhibitory concentration MIC (MDRAB 12035 [1]): 16 µg/mL (≈ 6.51 µM) | Peptide MIC, peptide alone (MDRAB 12035 [1]): 16 µg/mL | Minimal inhibitory concentration MIC (A. baumannii [2]): 16 µg/mL (≈ 6.51 µM) | Peptide MIC, peptide alone (A. baumannii [2]): 16 µg/mL | Antibacterial activity relative to PapMA-1 (A. baumannii [2]; A. baumannii and antibiotic-resistant strains thereof): 4 times | Minimal inhibitory concentration MIC (S. epidermidis): >128 µg/mL | Minimal inhibitory concentration MIC (MDRPA 2003): 16 µg/mL (≈ 6.51 µM) | Minimal inhibitory concentration MIC (MDRPA 2002): 16 µg/mL (≈ 6.51 µM) | Minimal inhibitory concentration MIC (MDRST 8007): 32 µg/mL (≈ 13 µM) | Minimal inhibitory concentration MIC (P. aeruginosa): 16 µg/mL (≈ 6.51 µM) | Minimal inhibitory concentration MIC (S. typhimurium): 32 µg/mL (≈ 13 µM) | Erythromycin MIC during combined treatment with peptide (MDRAB 12035 [3]; [8]): 32 µg/mL | Linezolid MIC during combined treatment with peptide (MDRAB 12035 [3]; [8]): >128 µg/mL | Vancomycin MIC during combined treatment with peptide (MDRAB 12035 [3]; [8]): >128 µg/mL | Erythromycin MIC during combined treatment with peptide (MDRAB 12035 [3]; [9]): 16 µg/mL | Linezolid MIC during combined treatment with peptide (MDRAB 12035 [3]; [9]): 128 µg/mL | Vancomycin MIC during combined treatment with peptide (MDRAB 12035 [3]; [9]): >128 µg/mL | Erythromycin MIC during combined treatment with peptide (MDRAB 12035 [3]; [10]): 8 µg/mL | Linezolid MIC during combined treatment with peptide (MDRAB 12035 [3]; [10]): 64 µg/mL | Vancomycin MIC during combined treatment with peptide (MDRAB 12035 [3]; [10]): 128 µg/mL | Erythromycin MIC during combined treatment with peptide (MDRAB 12035 [3]; [11]): 4 µg/mL | Linezolid MIC during combined treatment with peptide (MDRAB 12035 [3]; [11]): 64 µg/mL | Vancomycin MIC during combined treatment with peptide (MDRAB 12035 [3]; [11]): 64 µg/mL | Erythromycin MIC during combined treatment with peptide (MDRAB 12035 [3]; [12]): 2 µg/mL | Linezolid MIC during combined treatment with peptide (MDRAB 12035 [3]; [12]): 32 µg/mL | Vancomycin MIC during combined treatment with peptide (MDRAB 12035 [3]; [12]): 64 µg/mL | Erythromycin MIC during combined treatment with peptide (MDRAB 12035 [3]; [13]): 0 µg/mL | Linezolid MIC during combined treatment with peptide (MDRAB 12035 [3]; [13]): 0 µg/mL | Vancomycin MIC during combined treatment with peptide (MDRAB 12035 [3]; [13]): 0 µg/mL | Erythromycin MIC during combined treatment with peptide (MDRAB 12035 [3]; [14]): 0 µg/mL | Linezolid MIC during combined treatment with peptide (MDRAB 12035 [3]; [14]): 0 µg/mL | Vancomycin MIC during combined treatment with peptide (MDRAB 12035 [3]; [14]): 0 µg/mL | Erythromycin MIC during combined treatment with peptide (MDRAB 12035 [3]; [15]): 0 µg/mL | Linezolid MIC during combined treatment with peptide (MDRAB 12035 [3]; [15]): 0 µg/mL | Vancomycin MIC during combined treatment with peptide (MDRAB 12035 [3]; [15]): 0 µg/mL | Peptide MIC during treatment with erythromycin (MDRAB 12035 [4]; [16]): 4 µg/mL | Peptide MIC during treatment with erythromycin (MDRAB 12035 [4]; [17]): 4 µg/mL | Peptide MIC during treatment with erythromycin (MDRAB 12035 [4]; [18]): 2 µg/mL | Peptide MIC during treatment with erythromycin (MDRAB 12035 [4]; [19]): 0 µg/mL | Peptide MIC during treatment with linezolid (MDRAB 12035 [4]; linezolid 64 μg/ml (Conc./MIC 1/8)): 4 µg/mL | Peptide MIC during treatment with linezolid (MDRAB 12035 [4]; linezolid 512 μg/ml (Conc./MIC 1)): 0 µg/mL | Peptide MIC during treatment with linezolid (MDRAB 12035 [4]; linezolid […] (Conc./MIC 1/2)): 1 µg/mL | Peptide MIC during treatment with linezolid (MDRAB 12035 [4]; linezolid […] (Conc./MIC 1/4)): 2 µg/mL | Peptide MIC during treatment with vancomycin (MDRAB 12035 [4]; [20]): 2 µg/mL | Peptide MIC during treatment with vancomycin (MDRAB 12035 [4]; [21]): 0.25 µg/mL | Peptide MIC during treatment with vancomycin (MDRAB 12035 [4]; vancomycin […] (Conc./MIC 1/4)): 2 µg/mL | Peptide MIC during treatment with vancomycin (MDRAB 12035 [4]; vancomycin […] (Conc./MIC 1/8)): 4 µg/mL | Peptide MIC during treatment with antibiotic (A. baumannii [5]; [16]): 8 µg/mL | Peptide MIC during treatment with antibiotic (A. baumannii [5]; [17]): 4 µg/mL | Peptide MIC during treatment with antibiotic (A. baumannii [5]; [18]): 2 µg/mL | Peptide MIC during treatment with antibiotic (A. baumannii [5]; [19]): 0 µg/mL | Peptide MIC during treatment with antibiotic (A. baumannii [5]; linezolid 32 μg/ml (Conc./MIC 1/8)): 4 µg/mL | Peptide MIC during treatment with antibiotic (A. baumannii [5]; linezolid 64 μg/ml (Conc./MIC 1/4)): 4 µg/mL | Peptide MIC during treatment with antibiotic (A. baumannii [5]; linezolid […] (Conc./MIC 1)): 0 µg/mL | Peptide MIC during treatment with antibiotic (A. baumannii [5]; linezolid […] (Conc./MIC 1/2)): 1 µg/mL | Peptide MIC during treatment with antibiotic (A. baumannii [5]; [20]): 0.25 µg/mL | Peptide MIC during treatment with antibiotic (A. baumannii [5]; [21]): 0 µg/mL | Peptide MIC during treatment with antibiotic (A. baumannii [5]; vancomycin […] (Conc./MIC 1/4)): 0.25 µg/mL | Peptide MIC during treatment with antibiotic (A. baumannii [5]; vancomycin […] (Conc./MIC 1/8)): 2 µg/mL | Antibiotic MIC, Erythromycin (MDREC 1229 [6]; [8]): 64 µg/mL | Antibiotic MIC, Linezolid (MDREC 1229 [6]; [8]): >128 µg/mL | Antibiotic MIC, Vancomycin (MDREC 1229 [6]; [8]): >128 µg/mL | Antibiotic MIC, Erythromycin (MDREC 1229 [6]; [9]): 32 µg/mL | Antibiotic MIC, Linezolid (MDREC 1229 [6]; [9]): 64 µg/mL | Antibiotic MIC, Vancomycin (MDREC 1229 [6]; [9]): >128 µg/mL | Antibiotic MIC, Erythromycin (MDREC 1229 [6]; [10]): 16 µg/mL | Antibiotic MIC, Linezolid (MDREC 1229 [6]; [10]): 64 µg/mL | Antibiotic MIC, Vancomycin (MDREC 1229 [6]; [10]): >128 µg/mL | Antibiotic MIC, Erythromycin (MDREC 1229 [6]; [11]): 16 µg/mL | Antibiotic MIC, Linezolid (MDREC 1229 [6]; [11]): 64 µg/mL | Antibiotic MIC, Vancomycin (MDREC 1229 [6]; [11]): >128 µg/mL | Antibiotic MIC, Erythromycin (MDREC 1229 [6]; [12]): 4 µg/mL | Antibiotic MIC, Linezolid (MDREC 1229 [6]; [12]): 16 µg/mL | Antibiotic MIC, Vancomycin (MDREC 1229 [6]; [12]): 128 µg/mL | Antibiotic MIC, Erythromycin (MDREC 1229 [6]; [13]): 0.25 µg/mL | Antibiotic MIC, Linezolid (MDREC 1229 [6]; [13]): 4 µg/mL | Antibiotic MIC, Vancomycin (MDREC 1229 [6]; [13]): 32 µg/mL | Antibiotic MIC, Erythromycin (MDREC 1229 [6]; [14]): 0 µg/mL | Antibiotic MIC, Linezolid (MDREC 1229 [6]; [14]): 0 µg/mL | Antibiotic MIC, Vancomycin (MDREC 1229 [6]; [14]): 0 µg/mL | Antibiotic MIC, Erythromycin (MDREC 1229 [6]; [15]): 0 µg/mL | Antibiotic MIC, Linezolid (MDREC 1229 [6]; [15]): 0 µg/mL | Antibiotic MIC, Vancomycin (MDREC 1229 [6]; [15]): 0 µg/mL | Minimal inhibitory concentration MIC (B. subtilis): >128 µg/mL | Minimal inhibitory concentration MIC (S. aureus): >128 µg/mL | Minimal inhibitory concentration MIC (MDREC 1238): 32 µg/mL (≈ 13 µM) | Minimal inhibitory concentration MIC (MDRAB 12036): 16 µg/mL (≈ 6.51 µM) | Peptide MIC (MDREC 1229 [7]; [22]): 0 µg/mL | Peptide MIC (MDREC 1229 [7]; with Linezolid 512 μg/ml (Conc./MIC 1)): 0 µg/mL | Peptide MIC (E. coli; [22]): 0 µg/mL | Peptide MIC (E. coli; with Linezolid […] (Conc./MIC 1)): 0 µg/mL | Peptide MIC (E. coli; with Vancomycin 1024 μg/ml (Conc./MIC 1)): 0 µg/mL
